According to patent US20100184810A1, “METHODS AND COMPOSITIONS RELATED TO RIBOSWITCHES THAT CONTROL ALTERNATIVE SPLICING” (Yale University, priority 2007, published 2010):
Where two headings read alike, the source gives them in different places.

What was measured:
[1] = target: NMT1 riboswitch aptamer; experiment: In-line probing of NMT1 RNA constructs (TPP binding); parameters: species or system N. crassa
Procedure: In-line probing of RNA constructs. 5′ 32P-labeled RNAs were incubated at 23° C. for 40 hours in 50 mM Tris-HCl (pH 8.3 at 25° C.), 20 mM MgCl2 and 100 mM KCl in the presence or absence of TPP as defined. Cleavage products were separated by denaturing 10% PAGE, visualized by PhosphorImager (GE Healthcare), and quantified using ImageQuant software. KD values were determined by plotting the normalized fraction of RNA cleaved versus the logarithm of ligand concentration used. […] The results for in-line probing of 197 NMT1 and 115 NMT1 are depicted in FIG. 8 and FIG. 9, the results for 261 NMT1 are depicted in FIG. 10 and the results for 273 NMT1 are depicted in FIG. 11. Alternative base pairing similar to that being examined in the 273 NMT1 construct is observed in other fungal TPP riboswitches located in NMT1 mRNAs (FIG. 12).

[2] = tested on: FREQUENCY (FRQ) transcripts; settings: 30 μM thiamine in minimal medium
Procedure: (§1) Reverse transcriptase-polymerase chain reaction (RT-PCR) analyses. Total RNA was isolated from mycelia using TRIzol® LS reagent (Invitrogen) according to the manufacturer's directions. 5 μg of total RNA was treated with RNase free DNase I (Promega) for 30 min at 37° C. cDNA was generated by reverse transcription with a polyT primer for 1 hr at 42° C. using SuperScript™ II Reverse Transcriptase (Invitrogen) according to the manufacturer's directions. To exclude the possibility of amplification products originating from contamination with genomic DNA, control reactions using RNA preparations before RT were performed and, for NMT1, a reverse primer spanning an exon-exon border in the coding region was used.
Reverse transcriptase-polymerase chain reaction (RT-PCR) analyses. Total RNA was isolated from mycelia using TRIzol® LS reagent (Invitrogen) according to the manufacturer's directions. 5 μg of total RNA was treated with RNase free DNase I (Promega) for 30 min at 37° C. cDNA was generated by reverse transcription with a polyT primer for 1 hr at 42° C. using SuperScript™ II Reverse Transcriptase (Invitrogen) according to the manufacturer's directions. […]

[3] = tested on: THI4 precursor mRNA; settings: 30 μM thiamine in growth medium, 24 h
Procedure: (§2) RNA Analyses. RT-PCR analyses were conducted using RNA from untransformed N. crassa inoculated into 100 ml of Vogel's minimal medium supplemented with 0.5 mg ml-1 L-histidine. Cultures were grown at 30° C. with shaking at 150 rpm for 24 h either in the absence or presence of supplemented 30 μM thiamine. The cDNA was used as a template for PCR amplification of the 5′ regions of the three genes using primers and methods as described in Supplementary Information. All splicing products were confirmed by cloning and sequencing.
as §1
as §1, with “used. […] For sequence identification all amplification products were cloned and confirmed by sequencing several independent clones.” for “used.”
(§3) A specific primer combination was used for every gene with one primer binding to the annotated 5′ end of the transcript and a second primer binding immediately downstream of the riboswitch-containing intron. For the NMT1 gene, the primers used for PCR were DNA37 and DNA38 (FIG. 14), corresponding to the annotated 5′ end of the NMT1 mRNA and a region approximately 50 nucleotides downstream of the TPP riboswitch-containing intron, respectively. For the THI4 (CyPBP37) gene, the primers used were DNA39 and DNA40, corresponding to the 5′ end of the mRNA and a region approximately 125 nucleotides downstream of the TPP riboswitch-containing intron, respectively.

[4] = tested on: NMT1 precursor mRNA
Procedure: as §2, §1
as §1, with “used. […] For sequence identification all amplification products were cloned and confirmed by sequencing several independent clones.” for “used.”
as §3

[5] = tested on: thiA mRNA carrying a TPP aptamer; settings: thiamine supplementation of growth medium; cited from earlier work
[6] = tested on: TPP riboswitch in the N. crassa NCU01977.1 mRNA; settings: 30 μM thiamine, 24 h
Procedure: LUC activity was normalized to the value measured at t=0 h.
Luciferase reporter gene assays. Mycelia from N. crassa transformed with LUC reporter constructs were isolated by filtration and approximately 100 mg of tissue was ground to a fine powder. After addition of 100 gl 1× Passive Lysis Buffer (Promega), the samples were vigorously mixed and incubated on ice for 30 min followed by centrifugation for 15 minutes at 13,000 g. Luciferase activity was determined for the resulting supernatant using the Luciferase Assay System (Promega) and a plate-reading luminometer (Wallac). Luciferase activity was normalized over total protein concentration of the extract as determined by Bradford Protein Assay (BioRad) and finally expressed relative to a reference construct.
(§4) Luciferase reporter gene assays. Mycelia from N. crassa transformed with LUC reporter constructs were isolated by filtration and approximately 100 mg of tissue was ground to a fine powder. […] Luciferase activity was determined for the resulting supernatant using the Luciferase Assay System (Promega) and a plate-reading luminometer (Wallac). Luciferase activity was normalized over total protein concentration of the extract as determined by Bradford Protein Assay (BioRad) and finally expressed relative to a reference construct.

[7] = tested on: NMT1 TPP riboswitch
Procedure: Reporter Gene Assays. Transformation of N. crassa was conducted using electroporation of freshly suspended macroconidia and insertion of the target gene was verified by PCR with insert specific primers from genomic DNA. Transcription of luciferase reporter constructs was constitutively driven by the N. crassa beta-tubulin (BTUB) promoter inserted upstream of the NMT1 5′ UTR. […] Samples were isolated and assayed for luciferase activity as described below.
as §4
Luciferase reporter gene assays. […] Luciferase activity was determined for the resulting supernatant using the Luciferase Assay System (Promega) and a plate-reading luminometer (Wallac). Luciferase activity was normalized over total protein concentration of the extract as determined by Bradford Protein Assay (BioRad) and finally expressed relative to a reference construct.

[8] = 30 μM thiamine added at t=0 to culture grown in thiamine-free medium

SMILES | Kd ([1]; both constructs (197 NMT1 and 115 NMT1), in-line probing, 23° C., 40 hours, 20 mM MgCl2, read-out: apparent dissociation constant (KD)) [nM] | structural modulation of nucleotides at the branch site ([1]; in-line probing of 261 NMT1 RNA, 10 μM TPP) | structural modulation at the second 5′ splice site ([1]; in-line probing of 273 NMT1 RNA, 10 μM TPP) | effect on splicing of an RNA that does not carry the TPP riboswitch (FRQ) [2] | effect on splicing of an RNA that does not carry the TPP riboswitch (FRQ) ([2]; listed as Thiamine) | effect on splicing of THI4 precursor mRNA [3] | NMT1 transcript types within four hours after thiamine supplementation [4, 8] | NMT1 transcript types within the first hour after thiamine supplementation [4, 8] | effect on splicing of NMT1 precursor mRNA ([4]; 30 μM thiamine in growth medium, 24 h) | thiA gene expression [5] | LUC expression, NCU01977.1 reporter fusion construct [6] | LUC expression, constructs I-2R and I-3R (TPP riboswitch absent) ([7]; 30 μM thiamine in the medium) | LUC reporter expression, wild-type (WT) NMT1 construct ([7]; grown overnight in medium supplemented with 30 μM thiamine)
Cc1ncc(C[n+]2csc(CCO[P@](=O)(O)OP(=O)(O)O)c2C)c(N)n1 [TPP, thiamine pyrophosphate] | ~0.3 | more structured | more flexible structure |  |  |  |  |  |  |  |  |  | 
Cc1ncc(C[n+]2csc(CCO)c2C)c(N)n1 [thiamine] |  |  |  | do not change in number relative to each other | does not affect splicing | causes alternative splicing | I-3 is almost completely replaced by I-2 and I-1 | the splicing product I-2 and the unspliced NMT1 precursor RNA I-1 appear | causes alternative splicing | reduced gene expression | an increase in LUC expression | unchanged | Substantial repression
